biological target: PRMT5-MEP50 enzyme complex (Homo sapiens (Human), UniProt O14744); test: PRMT5 enzyme activity in vitro assay (methylation of histone H4R3, ELISA absorbance at 450 nm); format: biochemical; details: SAM, histone H4 peptide, 2 hours at room temperature, 8 points from 10 μM to 0.128 nM
Sequence (O14744 2-637): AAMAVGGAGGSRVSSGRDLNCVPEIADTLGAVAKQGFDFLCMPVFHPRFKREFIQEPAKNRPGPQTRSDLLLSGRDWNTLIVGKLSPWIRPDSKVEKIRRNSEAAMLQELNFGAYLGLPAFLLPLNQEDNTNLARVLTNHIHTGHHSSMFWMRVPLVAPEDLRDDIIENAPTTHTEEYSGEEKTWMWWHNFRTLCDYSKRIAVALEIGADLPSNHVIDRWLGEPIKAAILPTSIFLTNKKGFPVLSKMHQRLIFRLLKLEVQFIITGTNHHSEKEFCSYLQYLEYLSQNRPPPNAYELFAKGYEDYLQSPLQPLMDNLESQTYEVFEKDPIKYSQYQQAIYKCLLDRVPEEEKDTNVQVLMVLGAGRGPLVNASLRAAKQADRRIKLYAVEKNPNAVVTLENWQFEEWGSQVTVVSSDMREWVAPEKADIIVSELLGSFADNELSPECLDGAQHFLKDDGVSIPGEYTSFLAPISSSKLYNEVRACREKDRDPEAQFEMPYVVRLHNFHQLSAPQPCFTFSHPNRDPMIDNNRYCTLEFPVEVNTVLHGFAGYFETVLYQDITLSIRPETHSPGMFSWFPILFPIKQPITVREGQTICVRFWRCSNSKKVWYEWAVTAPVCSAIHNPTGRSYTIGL
Sequence (Q9BQA1 2-342 partner): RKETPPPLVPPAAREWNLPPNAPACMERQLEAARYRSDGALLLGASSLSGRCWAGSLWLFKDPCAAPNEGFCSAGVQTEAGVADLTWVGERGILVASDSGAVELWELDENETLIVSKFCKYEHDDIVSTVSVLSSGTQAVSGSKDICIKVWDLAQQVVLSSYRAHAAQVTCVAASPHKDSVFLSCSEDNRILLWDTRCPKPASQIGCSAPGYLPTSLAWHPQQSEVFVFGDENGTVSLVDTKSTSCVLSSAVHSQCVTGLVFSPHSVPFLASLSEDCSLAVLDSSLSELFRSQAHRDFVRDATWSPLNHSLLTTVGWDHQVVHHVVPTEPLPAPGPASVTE
Protocol: Method for Measuring Enzyme Activity
In vitro assay: PRMT5-MEP50 enzyme complex, cofactor S-adenosylmethionine (SAM) and histone H4 peptide were reacted in vitro, and methylation of arginine (H4R3)—which is the third amino acid of histone H4—was measured in order to measure the enzyme activity of PRMT5.
S-adenosylmethionine was purchased from NEB (New England Biolabs, USA, Catalog No. B9003S).
Experimental procedure: The histone H4 peptide was diluted with carbonate-bicarbonate buffer and prepared to 100 μg/mL, and then dispensed onto the plate per 100 μL and reacted at 37° C. for 1 hour. PRMT5-MEP50 enzyme complex and S-adenosylmethionine were diluted with histone methyltransferase reaction buffer to prepare 5 μg/mL and 2 μM, respectively, and then 20 μL of PRMT5-MEP50 enzyme complex and 25 μL of S-adenosylmethionine were dispensed onto the plate prepared above. 5 μL of the compound diluted with 10% dimethyl sulfoxide solution was added thereto and reacted at room temperature for 2 hours (final volume=50 μL). […] After preparing the primary antibody by diluting 1:2000 with blocking buffer, 100 μL was added to the plate and reacted at room temperature for 1 hour. […] Then, the absorbance at 450 nm was measured to calculate the IC50 value of the compound. […]

Row | IC50 [nM] | Structure (SMILES)
1 | 100 to 1000 | COc1ccc2c(c1)OCCN(CC(O)CN1CCc3ccccc3C1)C2=O (centres unmarked) [Example 1, 4-[3-(3,4-dihydro-1H-isoquinolin-2-yl)-2-hydroxy-propyl]-8-methoxy-2,3-dihydro-1,4-benzoxazepin-5-one]
2 | 100 to 1000 | CCN1C(=O)CN(C[C@H](O)CN2CCc3ccccc3C2)C(=O)c2ccc(Br)cc21 [Example 158, 8-bromo-4-[(2R)-3-(3,4-dihydro-1H-isoquinolin-2-yl)-2-hydroxy-propyl]-1-ethyl-3H-1,4-benzodiazepin-2,5-dione]

test system: SDMA levels in U87MG tumor; test: Test for in vivo target inhibitory activity (SDMA levels in U87MG tumor); details: U87MG tumor implanted subcutaneously in nude mice, oral 25 or 50 mg/kg 1-2 times daily for one week
Protocol: Test for In Vivo Target Inhibitory Activity
After U87MG tumor cells were implanted subcutaneously in nude mice, a PRMT5 inhibitor was administered orally (25 or 50 mg/kg) 1-2 times daily for one week, and then the degree to which SDMA levels in the tumor decreased was measured.
Reagents: Bradford's solution (Catalog No. 500-0006) was purchased from Bio-rad (USA). SDMA antibody (Catalog No. 13222s) was purchased from Cell Signaling Technology (USA). SmD3 antibody (Catalog No. ap12451a) was purchased from Abgent (USA), and secondary antibody (Catalog No. ab6721) and TMB substrate (Catalog No. ab210902) were purchased from Abcam (UK).
Experimental procedure: The tumor tissues transplanted into the mice were excised, the cells were lysed, and then quantified with Bradford's solution. 5-10 μg of protein per sample was diluted with carbonate-bicarbonate buffer and dispensed into a 96-well plate and reacted at room temperature for 2 hours. After washing with phosphate buffered saline (PBST) containing 0.05% Tween-20 3 times, 200 μL of PBST containing 5% bovine serum albumin (BSA-PBST) was added and reacted at room temperature for 2 hours. After washing with PBST 3 times, the SDMA antibody and the SmD3 antibody were diluted in BSA-PBST, and 100 μL of each was dispensed onto the plate and reacted at 4° C. overnight. After washing with PBST 3 times the next day, 100 μL of the secondary antibody diluted in BSA-PBST was added and reacted at room temperature for 1 hour. After washing with PBST 3 times, 100 μL of TMB substrate was added and reacted at room temperature for 10-20 minutes, and 100 μL of 1N sulfuric acid solution was added to terminate the reaction. Then, the absorbance at 450 nm was measured to calculate the degree of SDMA inhibition by the compound. (+++: more than 70%, ++: more than 30% and 70% or less, +: 30% or less)

Row | Structure (SMILES) | SDMA inhibition (%)
3 | O=C1c2ccc(CN3CCOCC3)cc2OCCN1C[C@H](O)CN1CCc2ccccc2C1 [Example 22, 4-[(2R)-3-(3,4-dihydro-1H-isoquinolin-2-yl)-2-hydroxy-propyl]-8-(morpholinomethyl)-2,3-dihydro-1,4-benzoxazepin-5-one] | +++ (+++: more than 70%)
4 | CN1CCC(Oc2ccc3c(c2)OCCN(C[C@H](O)CN2CCc4ccccc4C2)C3=O)CC1 [Example 87, 4-[(2R)-3-(3,4-dihydro-1H-isoquinolin-2-yl)-2-hydroxy-propyl]-8-[(1-methyl-4-piperidyl)oxy]-2,3-dihydro-1,4-benzoxazepin-5-one] | +++ (+++: more than 70%)
5 | CCN1CCC(Oc2ccc3c(c2)OCCN(C[C@H](O)CN2CCc4ccccc4C2)C3=O)CC1 [Example 88, 4-[(2R)-3-(3,4-dihydro-1H-isoquinolin-2-yl)-2-hydroxy-propyl]-8-[(1-ethyl-4-piperidyl)oxy]-2,3-dihydro-1,4-benzoxazepin-5-one] | +++ (+++: more than 70%)
6 | O=C1c2ccc(OC3CCN(C4COC4)CC3)cc2OCCN1C[C@H](O)CN1CCc2ccccc2C1 [Example 92, 4-[(2R)-3-(3,4-dihydro-1H-isoquinolin-2-yl)-2-hydroxy-propyl]-8-[[1-(oxetan-3-yl)-4-piperidyl]oxy]-2,3-dihydro-1,4-benzoxazepin-5-one] | +++ (+++: more than 70%)
7 | CN1CCC(Oc2ccc3c(c2)OC(C)(C)CN(C[C@H](O)CN2CCc4ccccc4C2)C3=O)CC1 [Example 112, 4-[(2R)-3-(3,4-dihydro-1H-isoquinolin-2-yl)-2-hydroxy-propyl]-2,2-dimethyl-8-[(1-methyl-4-piperidyl)oxy]-3H-1,4-benzoxazepin-5-one] | +++ (+++: more than 70%)
8 | O=C1c2ccc(Br)cc2CCCN1C[C@H](O)CN1CCc2ccccc2C1 [Example 155, 7-bromo-2-[(2R)-3-(3,4-dihydro-1H-isoquinolin-2-yl)-2-hydroxy-propyl]-4,5-dihydro-3H-2-benzazepin-1-one] | + (+: 30% or less)

Reference: patent publication US11725001B2, “Bicyclic compound and use thereof” (SK BIOPHARMACEUTICALS CO., LTD., priority 2019, dated 2023)
